In patent publication US20100081679A1, “DIAMINOPYRIMIDINES AS FUNGICIDES” (Bayer CropScience AG, priority 2007, published 2010):
Marks after values point to notes of the source that are not given here.

assay: logP determination via retention times, calibrated with unbranched alkan-2-ones; assay type: physicochemical; settings: HPLC on reversed-phase C 18, EEC Directive 79/831 Annex V.A8; method *: 40° C., 0.1% aqueous formic acid and acetonitrile, linear gradient 10% to 95% acetonitrile

| Structure (SMILES) | logP |
| --- | --- |
| CC(=O)N1CCc2ccc(Nc3ncc(Cl)c(NCC4CC4)n3)cc21 [compound 521] | 1.66* |
| CC(=O)Nc1ccc(Nc2ncc(Cl)c(NCC3CC3)n2)cc1Cl [compound 505] | 1.68* |
| Brc1cnc(Nc2ccc(-n3ccnc3)cc2)nc1NC1CC1 [compound 501] | 0.93* |
| CC(C)(CF)C(=O)Nc1cccc(Nc2ncc(Br)c(NCC3CC3)n2)c1 [compound 467] | 1.99* |
| FC(F)(F)Oc1ccc(Nc2ncc(Br)c(NCC3CC3)n2)cc1 [compound 476] | 3.1* |
| O=C1CCc2cc(Nc3ncc(Cl)c(NCC4CC4)n3)ccc2N1 [compound 517] | 1.19* |
| CC(=O)N1CCc2cc(Nc3ncc(Cl)c(NCC4CC4)n3)ccc21 [compound 518] | 1.59* |

same assay, conditions: HPLC on reversed-phase C18, method **: 43° C.; mobile phase 0.1% aqueous phosphoric acid and acetonitrile; linear gradient 10% to 95% acetonitrile

| Structure (SMILES) | logP |
| --- | --- |
| CC(C)(C)NS(=O)(=O)c1ccc(Nc2ncc(Cl)c(NC3CC3)n2)cc1 [compound 306] | 2.3** |

same assay, conditions: HPLC on reversed-phase C18, method *: 40° C., 0.1% aqueous formic acid and acetonitrile, linear gradient 10% to 95% acetonitrile

| Structure (SMILES) | logP |
| --- | --- |
| COc1ccc(Nc2ncc(Cl)c(NCC3CC3)n2)cc1OC [compound 686] | 1.63* |
| N#CCC(=O)c1ccc(Nc2ncc(Br)c(NC3CC3)n2)cc1 [compound 759] | 2.16* |
| FC(F)(F)c1cc(Nc2ncc(Cl)c(NC3CC3)n2)cc(C(F)(F)F)c1 [compound 903] | 4.56* |
| Clc1ccc(Nc2ncc(Cl)c(NC3CC3)n2)cc1Cl [compound 941] | 3.46* |
| CS(=O)(=O)Nc1ccc(Nc2ncc(Cl)c(NCC3CC3)n2)cc1 [compound 697] | 1.51* |
| Oc1cccc(Nc2ncc(Cl)c(NCC3CC3)n2)c1 [compound 681] | 1.49* |
| O=C(c1ccc(Nc2ncc(Cl)c(NC3CC3)n2)cc1)N1CCCCC1 [compound 723] | 1.97* |
| CCC(C)Sc1cccc(Nc2ncc(Cl)c(NC3CC3)n2)c1 (centres unmarked) [compound 665] | 3.69* |
| CC(Cl)c1cccc(Nc2ncc(C(F)(F)F)c(NCC3CC3)n2)c1 (centres unmarked) [compound 703] | 3.89* |
| CSc1cccc(Nc2ncc(Br)c(NC3CC3)n2)c1 [compound 121] | 2.44* |
| CC(=O)c1cc(Nc2ncc(Br)c(NC3CC3)n2)ccc1O [compound 763] | 1.75* |
| CO/N=C(\C)c1cccc(Nc2ncc(Cl)c(NC3CC3)n2)c1 [compound 732] | 2.37* |
| CCC(C)c1ccc(Nc2ncc(Cl)c(NC3CC3)n2)cc1 (racemic) [compound 954] | 2.77* |
| CC(=O)N(C)c1ccc(Nc2ncc(C#N)c(NC3CC3)n2)cc1 [compound 158] | 1.69* |
| Brc1cnc(Nc2ccc(-c3cscn3)cc2)nc1NC1CC1 [compound 747] | 1.99* |
| N#Cc1ccc(Nc2ncc(Br)c(NC3CC3)n2)cc1 [compound 744] | 2.43* |
| Clc1cnc(Nc2ccccc2Cc2ccccc2)nc1NC1CC1 [compound 890] | 2.21* |
| Cc1cccc(Nc2ncc(Cl)c(NC3CC3)n2)c1 [compound 731] | 1.93* |
| CC[S+]([O-])c1cccc(Nc2ncc(Br)c(NC3CC3)n2)c1 (racemic) [compound 958] | 1.59* |

same assay, conditions: HPLC on reversed-phase C18, method *: 40° C.; mobile phase 0.1% aqueous formic acid and acetonitrile; linear gradient 10% to 95% acetonitrile

| Structure (SMILES) | logP |
| --- | --- |
| CN(C)C(=O)c1ccc(Nc2ncc(Br)c(NC3CC3)n2)cc1 [compound 351] | 1.56* |
| Clc1cnc(Nc2ccc(-c3cscn3)cc2)nc1NC1CC1 [compound 286] | 1.9* |
| CCN(C(=O)OC)c1ccc(Nc2ncc(Br)c(NC3CC3)n2)cc1 [compound 303] | 2.06* |
| Clc1ccc(Nc2ncc(Cl)c(NC3CC3)n2)cc1 [compound 285] | 2.54* |
| O=C1CCCN1c1cc(Nc2ncc(Cl)c(NC3CC3)n2)c(Cl)cc1Cl [compound 298] | 2.59* |
| CC(C)OC(=O)Nc1cccc(Nc2ncc(Br)c(NC3CC3)n2)c1 [compound 331] | 2.11* |
| Clc1cccc(Nc2ncc(Br)c(NC3CC3)n2)c1 [compound 359] | 2.77* |

same assay, conditions: HPLC on reversed-phase C18 column (EEC Directive 79/831 Annex V.A8); method *: 40° C.; 0.1% aqueous formic acid and acetonitrile; linear gradient 10% to 95% acetonitrile

| Structure (SMILES) | logP |
| --- | --- |
| COCc1cccc(Nc2ncc(Cl)c(NC3CC3)n2)c1 [compound 268] | 1.67* |
| CN(C)S(=O)(=O)c1cccc(Nc2ncc(Br)c(NCC3CC3)n2)c1 [compound 192] | 2.48* |
| CS(=O)(=O)c1ccc(Nc2ncc(C(F)(F)F)c(NCC3CC3)n2)cc1 [compound 200] | 2.63* |
| COc1cc(Nc2ncc(C(F)(F)F)c(NCC3CC3)n2)cc(OC)c1OC [compound 217] | 2.57* |

same assay, conditions: HPLC reversed-phase C 18, EEC Directive 79/831 Annex V.A8; method *: 40° C., 0.1% aqueous formic acid and acetonitrile, linear gradient 10% to 95% acetonitrile

| Structure (SMILES) | logP |
| --- | --- |
| CC(=O)Cc1cccc(Nc2ncc(Br)c(NC3CC3)n2)c1 [compound 782] | 1.64* |
| COc1cccc(Nc2ncc(I)c(NC3CC3)n2)c1 [compound 855] | 1.97* |
| O=C1COCCN1c1cccc(Nc2ncc(Br)c(NC3CC3)n2)c1 [compound 789] | 1.24* |
| O=C1CCCCN1c1cccc(Nc2ncc(F)c(NC3CC3)n2)c1 [compound 804] | 1.16* |
| CC(=O)Cc1cccc(Nc2ncc(Cl)c(NC3CC3)n2)c1 [compound 780] | 1.51* |
| CSC(C)c1cccc(Nc2ncc(C(F)(F)F)c(NCC3CC3)n2)c1 (centres unmarked) [compound 827] | 3.95* |

same assay, conditions: method **: HPLC reversed-phase C 18, 43° C., 0.1% aqueous phosphoric acid and acetonitrile, linear gradient 10% to 95% acetonitrile

| Structure (SMILES) | logP |
| --- | --- |
| Brc1cnc(Nc2ccccc2)nc1NC1CC1 [Example 30] | 1.8** |
| O=C1CCCN1c1ccc(Nc2ncc(Cl)c(NC3CC3)n2)cc1 [Example 34] | 1.45** |
| COc1cc(Nc2ncc(Cl)c(NCC3CC3)n2)cc(OC)c1OC [Example 12] | 1.78** |
| O=S(=O)(c1cccc(Nc2ncc(Cl)c(NC3CC3)n2)c1)N1CCOCC1 [Example 19] | 2.13** |
| Cc1ccc(Nc2ncc(Cl)c(NC3CC3)n2)cc1S(=O)(=O)N(C)C [Example 47] | 2.14** |
| CC(=O)c1ccc(Nc2ncc(Cl)c(NC3CC3)n2)cc1.Cl [Example 45] | 1.99** |
| O=C1CCCN1c1cc(Nc2ncc(Cl)c(NC3CC3)n2)ccc1Cl [compound 368] | 1.9** |
| CC(=O)c1cccc(Nc2ncc(Cl)c(NC3CC3)n2)c1 [Example 5] | 1.84** |
| CN(C)S(=O)(=O)c1cccc(Nc2ncc(Cl)c(NCC3CC3)n2)c1 [compound 49] | 2.18** |
| CS(=O)(=O)c1ccc(Nc2ncc(Cl)c(NC3CC3)n2)cc1 [Example 50] | 1.75** |
| CC(=O)NS(=O)(=O)c1ccc(Nc2ncc(Cl)c(NC3CC3)n2)cc1 [Example 24] | 1.64** |

same assay, conditions: method **: HPLC reversed-phase C 18, temperature 43° C.; mobile phase 0.1% aqueous phosphoric acid and acetonitrile; linear gradient 10% to 95% acetonitrile

| Structure (SMILES) | logP |
| --- | --- |
| Brc1cnc(Nc2cccc(N3CCCC3)c2)nc1NC1CC1 [compound 621] | 2.38** |
| Clc1cnc(Nc2cccc(N3CCCC3)c2)nc1NC1CC1 [compound 619] | 2.23** |
| CC(=O)Nc1ccc(Nc2ncc(C(F)(F)F)c(NC3CC3)n2)cc1Cl [compound 648] | 2.27** |

same assay, conditions: method **: HPLC, reversed-phase C 18, 43° C., mobile phase 0.1% aqueous phosphoric acid and acetonitrile, linear gradient from 10% to 95% acetonitrile

| Structure (SMILES) | logP |
| --- | --- |
| FS(F)(F)(F)(F)c1cccc(Nc2ncc(Cl)c(NC3CC3)n2)c1 [compound 1052] | 3.7** |

same assay, conditions: method *: HPLC reversed-phase C18, 40° C., 0.1% aqueous formic acid and acetonitrile, linear gradient 10% to 95% acetonitrile

| Structure (SMILES) | logP |
| --- | --- |
| FC(F)(F)c1nc2ccc(Nc3ncc(Cl)c(NC4CC4)n3)cc2[nH]1 [Example 68] | 1.55* |
| CCN(C(C)=O)c1ccc(Nc2ncc(Br)c(NC3CC3)n2)cc1 [compound 380] | 1.73* |
| CCC(=O)Nc1cccc(Nc2ncc(Br)c(NC3CC3)n2)c1 [compound 381] | 1.54* |
| O=C(c1ccc(Nc2ncc(Cl)c(NC3CC3)n2)cc1)C(F)(F)F [Example 73] | 3.62* |
| O=C1CCCN1Cc1ccc(Nc2ncc(Cl)c(NC3CC3)n2)cc1 [compound 432] | 1.36* |
| CNC(=O)c1ccc(Nc2ncc(Br)c(NCC3CC3)n2)cc1 [compound 424] | 1.58* |
| N#Cc1cnc(Nc2ccccc2)nc1NCC1CC1 [compound 87] | 2.77* |
| CCCCSc1cccc(Nc2ncc(Cl)c(NC3CC3)n2)c1.Cc1ccc(S(=O)(=O)O)cc1 [compound 443] | 3.79* |

same assay, conditions: method *: HPLC reversed-phase C 18, temperature 40° C.; mobile phase 0.1% aqueous formic acid and acetonitrile; linear gradient 10% to 95% acetonitrile

| Structure (SMILES) | logP |
| --- | --- |
| CC(=O)c1cccc(Nc2ncc(C#N)c(NC3CC3)n2)c1 [compound 610] | 2.23* |
| CSc1ccc(Nc2ncc(F)c(NC3CC3)n2)cc1Cl [compound 579] | 2.13* |
| O=C1CCCCN1c1ccc(Nc2ncc(Cl)c(NC3CC3)n2)cc1 [compound 569] | 1.47* |
| CC(=O)Nc1ccc(Nc2ncc(C(F)(F)F)c(NC3CC3)n2)cc1Cl [compound 648] | 2.18*; |
| CNC(=O)c1cccc(Nc2ncc(F)c(NC3CC3)n2)c1 [compound 585] | 1.05* |
| CSc1ccc(Nc2ncc(C(F)(F)F)c(NC3CC3)n2)cc1Cl [compound 646] | 4.08* |
| CNC(=O)Oc1cccc(Nc2ncc(C#N)c(NC3CC3)n2)c1 [compound 611] | 1.92* |
| Fc1cc(F)cc(Nc2ncc(Br)c(NC3CC3)n2)c1 [compound 602] | 3.35* |

same assay, conditions: method *: HPLC, reversed-phase C 18, 40° C., mobile phase 0.1% aqueous formic acid and acetonitrile, linear gradient from 10% to 95% acetonitrile

| Structure (SMILES) | logP |
| --- | --- |
| CC(C)Oc1ccc(Nc2ncc(Cl)c(NC3CC3)n2)cc1OC(C)C [compound 992] | 2.42* |
| O=C(c1cccc(Nc2ncc(Cl)c(NC3CC3)n2)c1)N1CCSCC1 [compound 1067] | 1.8* |
| Fc1ccc(Nc2ncc(Cl)c(NC3CC3)n2)cc1OC(F)F [compound 1053] | 2.62* |

same assay, conditions: pH 2.3; read-out: logP (pH2.3)

| Structure (SMILES) | chromatographic logP |
| --- | --- |
| Clc1ncc(Cl)c(NC2CC2)n1 [2,5-Dichloro-N-cyclopropylpyrimidine-4-amine] | 1.79 |
| Clc1ncc(I)c(NC2CC2)n1 [2-chloro-N-cyclopropyl-5-iodopyrimidine-4-amine] | 2.19 |
